Data: PubChem BioAssay (NCI)
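Compound exposure: 48 hours, 5 concentrations, 96-well plates. TGI: concentration producing complete growth inhibition.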

Legend:
Test in all cases: NCI tumour cell line growth inhibition, 48 h
BT-549 breast = system: BT-549 breast
HCT-116 colon = system: HCT-116 colon
HCT-15 colon = system: HCT-15 colon
HL-60(TB) leukemia = system: HL-60(TB) leukemia
HOP-92 NSCLC = system: HOP-92 NSCLC
K-562 leukemia = system: K-562 leukemia
MDA-N = system: MDA-N
NCI/ADR-RES ovarian = system: NCI/ADR-RES ovarian
RPMI-8226 leukemia = system: RPMI-8226 leukemia
RXF 393 renal = system: RXF 393 renal
SF-268 CNS = system: SF-268 CNS
SF-539 CNS = system: SF-539 CNS
SK-MEL-2 melanoma = system: SK-MEL-2 melanoma
SK-MEL-5 melanoma = system: SK-MEL-5 melanoma
SK-OV-3 ovarian = system: SK-OV-3 ovarian
SNB-19 CNS = system: SNB-19 CNS

SMILES | TGI (BT-549 breast) [µM] | TGI (HCT-116 colon) [µM] | TGI (HCT-15 colon) [µM] | TGI (HL-60(TB) leukemia) [µM] | TGI (HOP-92 NSCLC) [µM] | TGI (K-562 leukemia) [µM] | TGI (MDA-N) [µM] | TGI (NCI/ADR-RES ovarian) [µM] | TGI (RPMI-8226 leukemia) [µM] | TGI (RXF 393 renal) [µM] | TGI (SF-268 CNS) [µM] | TGI (SF-539 CNS) [µM] | TGI (SK-MEL-2 melanoma) [µM] | TGI (SK-MEL-5 melanoma) [µM] | TGI (SK-OV-3 ovarian) [µM] | TGI (SNB-19 CNS) [µM]
S=C1NCCN1C(=S)NC1CCCCC1 | 60.9 | > 100 | 89.7 | 96.7 | 66.2 | > 100 | > 100 | > 100 | > 100 | 28.6 | > 100 | 70.7 | 96 | 50.7 | > 100 | 
[O-]/N=N\c1on[n+](CCc2ccccc2)c1Cc1c(/N=N/[O-])on[n+]1CCc1ccccc1 | 78.1 | > 100 | > 100 | > 100 | 65.8 | 65 | > 100 | > 100 | > 100 | > 100 | > 100 | 37.1 | 94 | 88 | > 100 | 93.2
Nc1nc(Cl)cc(NCC2(CO)CC(c3ccccc3)C2)n1 (stereo not given) | > 100 | > 100 | > 100 | 56.9 | > 100 | > 100 | > 100 | 92.2 | > 100 | > 100 | > 100 | > 100 | > 100 | 29.4 | > 100 | > 100
CSc1ncc2c(C#N)c3ccccn3c(=O)c2n1 | > 100 | > 100 | > 100 | > 100 | > 100 | > 100 | > 100 | > 100 | > 100 | > 100 | > 100 | > 100 | > 100 | > 100 | > 100 | > 100
O=CN1CCN(C(=O)c2ccc(Cl)cc2)C1=S | 69.2 | 34.8 | 55.8 | 44.1 | 14.9 | 39.6 | 31.5 | > 100 | 17.1 | 31 | 35.9 | 61.7 | 36 |  | 74.6 | 29.5
c1csc(-c2ccc(-c3ccsc3)s2)c1 | > 100 | > 100 | > 100 | > 100 | > 100 | > 100 | > 100 | > 100 | > 100 | > 100 | > 100 | > 100 | > 100 | > 100 | > 100 | > 100
Cc1ccc(C)c(NC(=O)/C(=N\N)C(c2cnc3ccc([N+](=O)[O-])cc3n2)[N+](=O)[O-])c1 (stereo not given) | > 100 | > 100 | > 100 | > 100 | > 100 | > 100 | > 100 | > 100 | > 100 | > 100 | > 100 | > 100 | > 100 | > 100 | > 100 | 
CC(=O)c1c2c(cc3c1CC1(C3)Cc3ccc4c(c3C1=O)CCC4)CCC2 (stereo not given) | > 100 | > 100 | > 100 | 15 | 83.7 | > 100 | > 100 | 17.7 | > 100 | > 100 | > 100 | > 100 | > 100 | 38.5 | > 100 | > 100
CC(C)CNC(=O)c1c(NC(=O)c2ccccc2)sc2[nH]c(=O)n(-c3ccccc3)c(=O)c12 | 77.4 | > 100 | > 100 | > 100 | 19.7 | > 86.9 | > 100 | > 100 | > 100 | 40 | > 100 | > 84 | 68.6 | > 100 | > 81.2 | 75.8
Clc1ccc(/C=C/c2nc(-c3ccc(Cl)cc3)cn3c2nc2ccccc23)cc1 | > 100 | > 100 | > 100 | > 100 | > 100 | > 100 | > 100 | > 100 | > 100 | > 100 | > 100 | > 100 | > 100 | > 100 | > 100 | > 100
C[C@]12CC[C@H]3[C@@H](CC=C4C[C@@H](O)CC[C@@]43C)[C@@H]1C[C@H](N1CCOCC1)[C@@H]2O | > 100 | > 100 | > 100 | > 100 | > 100 | > 100 | > 100 | > 100 | > 100 | > 100 | > 100 | > 100 | > 100 | > 100 | > 100 | > 100
c1ccc(-c2sc(-c3ccccc3)c3c2C2CCC3C2)cc1 | > 100 | > 100 | > 100 | > 100 | 47.9 | > 100 | > 100 | > 100 | 44.9 | 84.5 | > 100 | 67.7 | 39.5 | 49.7 | > 100 | > 100
N=c1oc2ccc([N+](=O)[O-])cc2cc1C(=O)Nc1ccccn1 | > 100 | > 100 | > 100 | > 100 | > 100 | > 100 | > 100 | > 100 | > 100 | > 100 | > 100 | > 100 | 43.4 | > 100 | > 100 | > 100
CCSC1=C(C#N)C2(CCCCC2)C2=C(CC(C)(C)CC2=O)N1 | 60.1 | > 100 | > 100 | > 100 | 43.1 | > 100 | > 100 | > 100 | > 100 | > 100 | > 100 | > 100 | > 100 | > 100 |  | 76.2
